Assays:
Type in all cases: in vivo
Gossypium hirsutum [1] = assay: Herbicidal activity, preemergence test; conditions: pre; sprayed onto soil, 800 g of active material per hectare; evaluated 3 weeks after treatment
Protocol: (§1) To evaluate their herbicidal activity, compounds according to the invention are tested using a representative range of plants: TRZAW Triticum aestivum HORVW Hordeum vulgare ZEAMX Zea mays GOSHI Gossypium hirsutum HELAN Helianthus annuus GLYMA Glycine max ALOMY Alopecurus myosuroides SETVI Setaria viridis ECHCG Echinochloa crus-galli GALAP Galium aparine STEME Stellaria media VERPE Veronica persica VIOAR Viola arvensis IPOHE Ipomoea hederacea LAMPU Lamium purpureum PAPRH Papaver rhoeas MATIN Matricaria inodora AMARE Amaranthus retroflexus ABUTH Abutilon theophrasti AMBEL Ambrosia artemisifolia CHEAL Chenopodium album
(§2) The tests fall into two categories, preemergence and postemergence. The preemergence tests involve spraying a liquid formulation of the compound onto the soil in which the seeds have recently been sown. The postemergence tests involve spraying a liquid formulation of the compound onto seedling plants.
(§3) The soil used in the tests is a prepared horticultural loam.
(§4) The formulations used in the tests are prepared from solutions of the test compounds in acetone containing 0.4% by weight of an alkylphenol/ethylene oxide condensate available under the trade mark TRITON X-155. These acetone solutions are diluted with water and the resulting formulations applied at dosage levels corresponding to 800 g of active material per hectare in a volume equivalent to 900 litres per hectare.
(§5) In the preemergence tests untreated sown soil and in the postemergence tests untreated soil bearing seedling plants are used as controls.
(§6) Results of herbicide evaluation are expressed on a rating scale (0-9). The scale is based upon a visual observation of plant stand, vigor, malformation, size, chlorosis, and general plant appearance as compared to a control. Preemergence and postemergence treatments are evaluated at 3 and 2 weeks after treatment, respectively.

Papaver rhoeas [2] = assay: Herbicidal activity, preemergence test; conditions: pre; sprayed onto soil, 800 g of active material per hectare; evaluated 3 weeks after treatment
Protocol: as §1, §2, §3, §4, §5, §6

Stellaria media [3] = assay: Herbicidal activity, preemergence test; conditions: pre; sprayed onto soil, 800 g of active material per hectare; evaluated 3 weeks after treatment
Protocol: as §1, §2, §3, §4, §5, §6

Veronica persica [4] = assay: Herbicidal activity, preemergence test; conditions: pre; sprayed onto soil, 800 g of active material per hectare; evaluated 3 weeks after treatment
Protocol: as §1, §2, §3, §4, §5, §6

Chenopodium album [5] = assay: Herbicidal activity, preemergence test; conditions: pre; sprayed onto soil, 800 g of active material per hectare; evaluated 3 weeks after treatment
Protocol: as §1, §2, §3, §4, §5, §6

Amaranthus retroflexus [6] = assay: Herbicidal activity, preemergence test; conditions: pre; sprayed onto soil, 800 g of active material per hectare; evaluated 3 weeks after treatment
Protocol: as §1, §2, §3, §4, §5, §6

Galium aparine [7] = assay: Herbicidal activity, preemergence test; conditions: pre; sprayed onto soil, 800 g of active material per hectare; evaluated 3 weeks after treatment
Protocol: as §1, §2, §3, §4, §5, §6

Ambrosia artemisifolia [8] = assay: Herbicidal activity, preemergence test; conditions: pre; sprayed onto soil, 800 g of active material per hectare; evaluated 3 weeks after treatment
Protocol: as §1, §2, §3, §4, §5, §6

Lamium purpureum [9] = assay: Herbicidal activity, preemergence test; conditions: pre; sprayed onto soil, 800 g of active material per hectare; evaluated 3 weeks after treatment
Protocol: as §1, §2, §3, §4, §5, §6

Zea mays [10] = assay: Herbicidal activity, preemergence test; conditions: pre; sprayed onto soil, 800 g of active material per hectare; evaluated 3 weeks after treatment
Protocol: as §1, §2, §3, §4, §5, §6

Matricaria inodora [11] = assay: Herbicidal activity, preemergence test; conditions: pre; sprayed onto soil, 800 g of active material per hectare; evaluated 3 weeks after treatment
Protocol: as §1, §2, §3, §4, §5, §6

Ipomoea hederacea [12] = assay: Herbicidal activity, preemergence test; conditions: pre; sprayed onto soil, 800 g of active material per hectare; evaluated 3 weeks after treatment
Protocol: as §1, §2, §3, §4, §5, §6

Glycine max [13] = assay: Herbicidal activity, preemergence test; conditions: pre; sprayed onto soil, 800 g of active material per hectare; evaluated 3 weeks after treatment
Protocol: as §1, §2, §3, §4, §5, §6

Alopecurus myosuroides [14] = assay: Herbicidal activity, preemergence test; conditions: pre; sprayed onto soil, 800 g of active material per hectare; evaluated 3 weeks after treatment
Protocol: as §1, §2, §3, §4, §5, §6

Setaria viridis [15] = assay: Herbicidal activity, preemergence test; conditions: pre; sprayed onto soil, 800 g of active material per hectare; evaluated 3 weeks after treatment
Protocol: as §1, §2, §3, §4, §5, §6

Hordeum vulgare [16] = assay: Herbicidal activity, preemergence test; conditions: pre; sprayed onto soil, 800 g of active material per hectare; evaluated 3 weeks after treatment
Protocol: as §1, §2, §3, §4, §5, §6

Abutilon theophrasti [17] = assay: Herbicidal activity, preemergence test; conditions: pre; sprayed onto soil, 800 g of active material per hectare; evaluated 3 weeks after treatment
Protocol: as §1, §2, §3, §4, §5, §6

Triticum aestivum [18] = assay: Herbicidal activity, preemergence test; conditions: pre; sprayed onto soil, 800 g of active material per hectare; evaluated 3 weeks after treatment
Protocol: as §1, §2, §3, §4, §5, §6

Gossypium hirsutum [19] = assay: Herbicidal activity, postemergence test; conditions: post; sprayed onto seedling plants, 800 g of active material per hectare; evaluated 2 weeks after treatment
Protocol: as §1, §2, §3, §4, §5, §6

Papaver rhoeas [20] = assay: Herbicidal activity, postemergence test; conditions: post; sprayed onto seedling plants, 800 g of active material per hectare; evaluated 2 weeks after treatment
Protocol: as §1, §2, §3, §4, §5, §6

Stellaria media [21] = assay: Herbicidal activity, postemergence test; conditions: post; sprayed onto seedling plants, 800 g of active material per hectare; evaluated 2 weeks after treatment
Protocol: as §1, §2, §3, §4, §5, §6

Veronica persica [22] = assay: Herbicidal activity, postemergence test; conditions: post; sprayed onto seedling plants, 800 g of active material per hectare; evaluated 2 weeks after treatment
Protocol: as §1, §2, §3, §4, §5, §6

Chenopodium album [23] = assay: Herbicidal activity, postemergence test; conditions: post; sprayed onto seedling plants, 800 g of active material per hectare; evaluated 2 weeks after treatment
Protocol: as §1, §2, §3, §4, §5, §6

Amaranthus retroflexus [24] = assay: Herbicidal activity, postemergence test; conditions: post; sprayed onto seedling plants, 800 g of active material per hectare; evaluated 2 weeks after treatment
Protocol: as §1, §2, §3, §4, §5, §6

Galium aparine [25] = assay: Herbicidal activity, postemergence test; conditions: post; sprayed onto seedling plants, 800 g of active material per hectare; evaluated 2 weeks after treatment
Protocol: as §1, §2, §3, §4, §5, §6

Ambrosia artemisifolia [26] = assay: Herbicidal activity, postemergence test; conditions: post; sprayed onto seedling plants, 800 g of active material per hectare; evaluated 2 weeks after treatment
Protocol: as §1, §2, §3, §4, §5, §6

Lamium purpureum [27] = assay: Herbicidal activity, postemergence test; conditions: post; sprayed onto seedling plants, 800 g of active material per hectare; evaluated 2 weeks after treatment
Protocol: as §1, §2, §3, §4, §5, §6

Zea mays [28] = assay: Herbicidal activity, postemergence test; conditions: post; sprayed onto seedling plants, 800 g of active material per hectare; evaluated 2 weeks after treatment
Protocol: as §1, §2, §3, §4, §5, §6

Matricaria inodora [29] = assay: Herbicidal activity, postemergence test; conditions: post; sprayed onto seedling plants, 800 g of active material per hectare; evaluated 2 weeks after treatment
Protocol: as §1, §2, §3, §4, §5, §6

Ipomoea hederacea [30] = assay: Herbicidal activity, postemergence test; conditions: post; sprayed onto seedling plants, 800 g of active material per hectare; evaluated 2 weeks after treatment
Protocol: as §1, §2, §3, §4, §5, §6

Glycine max [31] = assay: Herbicidal activity, postemergence test; conditions: post; sprayed onto seedling plants, 800 g of active material per hectare; evaluated 2 weeks after treatment
Protocol: as §1, §2, §3, §4, §5, §6

Alopecurus myosuroides [32] = assay: Herbicidal activity, postemergence test; conditions: post; sprayed onto seedling plants, 800 g of active material per hectare; evaluated 2 weeks after treatment
Protocol: as §1, §2, §3, §4, §5, §6

Setaria viridis [33] = assay: Herbicidal activity, postemergence test; conditions: post; sprayed onto seedling plants, 800 g of active material per hectare; evaluated 2 weeks after treatment
Protocol: as §1, §2, §3, §4, §5, §6

Hordeum vulgare [34] = assay: Herbicidal activity, postemergence test; conditions: post; sprayed onto seedling plants, 800 g of active material per hectare; evaluated 2 weeks after treatment
Protocol: as §1, §2, §3, §4, §5, §6

Abutilon theophrasti [35] = assay: Herbicidal activity, postemergence test; conditions: post; sprayed onto seedling plants, 800 g of active material per hectare; evaluated 2 weeks after treatment
Protocol: as §1, §2, §3, §4, §5, §6

Triticum aestivum [36] = assay: Herbicidal activity, postemergence test; conditions: post; sprayed onto seedling plants, 800 g of active material per hectare; evaluated 2 weeks after treatment
Protocol: as §1, §2, §3, §4, §5, §6

Structure (SMILES) | GOSHI control rating (0-9) (Gossypium hirsutum [1]) | PAPRH control rating (0-9) (Papaver rhoeas [2]) | STEME control rating (0-9) (Stellaria media [3]) | VERPE control rating (0-9) (Veronica persica [4]) | CHEAL control rating (0-9) (Chenopodium album [5]) | AMARE control rating (0-9) (Amaranthus retroflexus [6]) | GALAP control rating (0-9) (Galium aparine [7]) | AMBEL control rating (0-9) (Ambrosia artemisifolia [8]) | LAMPU control rating (0-9) (Lamium purpureum [9]) | ZEAMX control rating (0-9) (Zea mays [10]) | MATIN control rating (0-9) (Matricaria inodora [11]) | IPOHE control rating (0-9) (Ipomoea hederacea [12]) | GLXMA control rating (0-9) (Glycine max [13]) | ALOMY control rating (0-9) (Alopecurus myosuroides [14]) | SETVI control rating (0-9) (Setaria viridis [15]) | HORVW control rating (0-9) (Hordeum vulgare [16]) | ABUTH control rating (0-9) (Abutilon theophrasti [17]) | TRZAW control rating (0-9) (Triticum aestivum [18]) | GOSHI control rating (0-9) (Gossypium hirsutum [19]) | PAPRH control rating (0-9) (Papaver rhoeas [20]) | further results
O=C(NCc1cccs1)c1nnc(-c2ccccc2F)o1 [Example 11] | 0 (no effect) | 8 (approaching complete kill) | 7 (good herbicidal effect) | 7 (good herbicidal effect) | 3 (moderate effect) | 7 (good herbicidal effect) | 0 (no effect) | 0 (no effect) | 0 (no effect) | 1 (trace effect) | 2 (slight effect) | 0 (no effect) | 0 (no effect) | 0 (no effect) | 3 (moderate effect) | 0 (no effect) | 0 (no effect) | 0 (no effect) | 1 (trace effect) | 7 (good herbicidal effect) | STEME control rating (0-9) (Stellaria media [21]): 7 (good herbicidal effect); VERPE control rating (0-9) (Veronica persica [22]): 6 (herbicidal effect); CHEAL control rating (0-9) (Chenopodium album [23]): 8 (approaching complete kill); AMARE control rating (0-9) (Amaranthus retroflexus [24]): 9 (complete kill); GALAP control rating (0-9) (Galium aparine [25]): 0 (no effect); AMBEL control rating (0-9) (Ambrosia artemisifolia [26]): 4 (injury); LAMPU control rating (0-9) (Lamium purpureum [27]): 0 (no effect); ZEAMX control rating (0-9) (Zea mays [28]): 0 (no effect); MATIN control rating (0-9) (Matricaria inodora [29]): 0 (no effect); IPOHE control rating (0-9) (Ipomoea hederacea [30]): 0 (no effect); GLXMA control rating (0-9) (Glycine max [31]): 0 (no effect); ALOMY control rating (0-9) (Alopecurus myosuroides [32]): 0 (no effect); SETVI control rating (0-9) (Setaria viridis [33]): 0 (no effect); HORVW control rating (0-9) (Hordeum vulgare [34]): 0 (no effect); ABUTH control rating (0-9) (Abutilon theophrasti [35]): 5 (definite injury); TRZAW control rating (0-9) (Triticum aestivum [36]): 0 (no effect)
C[C@H](NC(=O)c1nnc(-c2ccc(Cl)cc2)o1)c1ccccc1 [Example 12] | 0 (no effect) | 9 (complete kill) | 9 (complete kill) | 9 (complete kill) | 8 (approaching complete kill) | 8 (approaching complete kill) | 0 (no effect) | 0 (no effect) | 8 (approaching complete kill) | 0 (no effect) | 7 (good herbicidal effect) | 0 (no effect) | 0 (no effect) | 1 (trace effect) | 9 (complete kill) | 0 (no effect) | 2 (slight effect) | 0 (no effect) | 9 (complete kill) | 9 (complete kill) | STEME control rating (0-9) (Stellaria media [21]): 9 (complete kill); VERPE control rating (0-9) (Veronica persica [22]): 9 (complete kill); CHEAL control rating (0-9) (Chenopodium album [23]): 9 (complete kill); AMARE control rating (0-9) (Amaranthus retroflexus [24]): 9 (complete kill); GALAP control rating (0-9) (Galium aparine [25]): 6 (herbicidal effect); AMBEL control rating (0-9) (Ambrosia artemisifolia [26]): 7 (good herbicidal effect); LAMPU control rating (0-9) (Lamium purpureum [27]): 9 (complete kill); ZEAMX control rating (0-9) (Zea mays [28]): 3 (moderate effect); MATIN control rating (0-9) (Matricaria inodora [29]): 5 (definite injury); IPOHE control rating (0-9) (Ipomoea hederacea [30]): 9 (complete kill); GLXMA control rating (0-9) (Glycine max [31]): 5 (definite injury); ALOMY control rating (0-9) (Alopecurus myosuroides [32]): 3 (moderate effect); SETVI control rating (0-9) (Setaria viridis [33]): 9 (complete kill); HORVW control rating (0-9) (Hordeum vulgare [34]): 4 (injury); ABUTH control rating (0-9) (Abutilon theophrasti [35]): 9 (complete kill); TRZAW control rating (0-9) (Triticum aestivum [36]): 2 (slight effect)

From patent publication EP0726263A2, “Herbicidal (1,3,4)oxadiazoles and thiadiazoles” (American Cyanamid Company, priority 1995, dated 1996)
